Reference: patent US9732060B2, “Aminotriazine derivative and pharmaceutical composition comprising the same” (Shionogi & Co., Ltd., priority 2013, dated 2017)

Tests used:
[1] = molecular target: human ether-a-go-go related gene (hERG) channel (Homo sapiens (Human), UniProt Q12809); assay: hERG test (whole cell patch clamp, IKr); type: cell-based; settings: CHO cells expressing hERG channel, IKr tail peak current
Source text: For the purpose of assessing risk of an electrocardiogram QT interval prolongation of the compound of the present invention, effects of the compound of the present invention on delayed rectifier K+ current (IKr), which plays an important role in the ventricular repolarization process, was studied using CHO cells expressing human ether-a-go-go related gene (hERG) channel.
After a cell was retained at a membrane potential of −80 mV by whole cell patch clamp method using an automated patch clamp system (QPatch: Sophion Bioscience A/S) and gave a leak potential of −50 mV, IKr induced by depolarization pulse stimulation at +20 mV for 2 seconds and, further, repolarization pulse stimulation at −50 mV for 2 seconds, was recorded. […] From the recording IKr, an absolute value of the tail peak current was measured based on the current value at the resting membrane potential using analysis software (Falster Patch; Sophion Bioscience A/S). Further, the % inhibition relative to the tail peak current before application of the compound of the present invention was calculated, and compared with the vehicle-applied group (0.1% dimethyl sulfoxide solution) to assess influence of the compound of the present invention on IKr.

[2] = Solubility test (1% DMSO, artificial intestinal juice pH 6.8); type: physicochemical; settings: artificial intestinal juice pH 6.8 with 1% DMSO, 25 °C, fassgf or other biorelevant, kinetic from dmso stock, artificial intestinal juice pH 6.8, 25 degrees Celsius, read-out: Solubulity
[3] = Metabolism stability test, pooled human hepatic microsomes; type: in vitro ADME; settings: remaining rate, human liver microsomes, 30 minutes, compound concentration 0.5 μmol/L
Description: Using commercially available pooled human hepatic microsomes, a test compound is reacted for a constant time, a remaining rate is calculated by comparing a reacted sample and an unreacted sample, thereby, a degree of metabolism in liver is assessed.
A reaction was performed (oxidative reaction) at 37° C. for 0 minute or 30 minutes in the presence of 1 mmol/L NADPH in 0.2 mL of a buffer (50 mmol/L tris-HCl pH 7.4, 150 mmol/L potassium chloride, 10 mmol/L magnesium chloride) containing 0.5 mg protein/mL of human liver microsomes. After the reaction, 50 μL of the reaction solution was added to 100 μL of a methanol/acetonitrile=1/1 (v/v) mixed and centrifuged at 3000 rpm for 15 minutes. The test compound in the supernatant was quantified by LC/MS/MS, and a remaining amount of the test compound after the reaction was calculated, letting a compound amount at 0 minute reaction time to be 100%.
The remaining rate at the compound concentration 0.5 μmol/L are shown below.

Sequence of human ether-a-go-go related gene (hERG) channel (Q12809 whole entry): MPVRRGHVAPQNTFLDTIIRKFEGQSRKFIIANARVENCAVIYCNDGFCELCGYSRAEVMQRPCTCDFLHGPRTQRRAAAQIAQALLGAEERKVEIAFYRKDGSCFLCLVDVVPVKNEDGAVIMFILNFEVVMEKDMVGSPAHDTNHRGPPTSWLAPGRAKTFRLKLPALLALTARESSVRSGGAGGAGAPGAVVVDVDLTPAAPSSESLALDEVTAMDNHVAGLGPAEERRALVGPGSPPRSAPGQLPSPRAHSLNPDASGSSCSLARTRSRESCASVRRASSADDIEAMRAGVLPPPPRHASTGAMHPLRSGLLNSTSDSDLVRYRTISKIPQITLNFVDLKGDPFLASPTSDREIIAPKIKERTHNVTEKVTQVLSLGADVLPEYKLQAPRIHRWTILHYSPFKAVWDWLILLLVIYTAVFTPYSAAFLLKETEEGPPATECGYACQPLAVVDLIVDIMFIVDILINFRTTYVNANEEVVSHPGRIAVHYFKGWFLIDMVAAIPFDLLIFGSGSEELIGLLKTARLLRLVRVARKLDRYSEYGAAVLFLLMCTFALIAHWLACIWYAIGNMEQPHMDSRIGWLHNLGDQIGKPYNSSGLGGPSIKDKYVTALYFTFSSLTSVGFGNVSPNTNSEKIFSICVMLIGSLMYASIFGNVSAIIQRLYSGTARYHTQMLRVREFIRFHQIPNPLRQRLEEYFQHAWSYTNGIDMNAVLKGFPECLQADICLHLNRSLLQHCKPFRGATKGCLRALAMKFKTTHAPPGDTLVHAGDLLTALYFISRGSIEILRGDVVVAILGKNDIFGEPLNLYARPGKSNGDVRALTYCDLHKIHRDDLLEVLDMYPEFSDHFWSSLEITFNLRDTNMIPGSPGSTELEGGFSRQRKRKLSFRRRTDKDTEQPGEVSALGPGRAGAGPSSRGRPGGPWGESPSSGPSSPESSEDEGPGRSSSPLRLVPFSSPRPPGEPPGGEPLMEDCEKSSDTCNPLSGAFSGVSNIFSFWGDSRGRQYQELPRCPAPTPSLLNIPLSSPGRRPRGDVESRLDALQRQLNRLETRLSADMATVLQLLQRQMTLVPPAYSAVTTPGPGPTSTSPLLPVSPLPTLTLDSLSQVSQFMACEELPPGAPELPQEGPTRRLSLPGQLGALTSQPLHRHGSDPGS

C[C@@H](C(=O)O)[C@H](C)n1c(=O)[nH]/c(=N\c2ccc(Oc3ccc(F)cn3)c(F)c2)n(Cc2ccc(Cl)cc2)c1=O [Compound I-002]
hERG Inhibition [1]: 7.3% | solubility at 18 h [2]: > 50 µM | Metabolism Stability [3]: 99%

CC(C)(Cn1c(=O)[nH]/c(=N\c2ccc(Oc3ccc(Cl)cn3)cc2)n(Cc2ccc(Cl)cc2)c1=O)C(=O)O [Compound I-006]
hERG Inhibition [1]: 5.3%
